# Values quoted from earlier work, collected in patent US8921361B2, “Triazine, pyrimidine and pyridine analogs and their use as therapeutic agents and diagnostic probes” (University of Basel, priority 2008, dated 2014).
# System: human cancer xenografts
structure (smiles),measurement,setting,value
FC(F)c1nc2ccccc2n1-c1nc(N2CCOCC2)nc(N2CCOCC2)n1 [ZSTK474],toxicity in xenograft mice,"mouse, in vivo, po",without evidence of critical toxicity
same,antitumor activity against human cancer xenografts in mice,"orally administered, Yaguchi et al. 2006",potent antitumor activity
